Among the data in patent US9120791B2, “Indolizine compounds, a process for their preparation and pharmaceutical compositions containing them” (LES LABORATOIRES SERVIER, priority 2012, dated 2015) are IC50 values, retold here.

One experiment concerns the target Bcl-2 protein (Homo sapiens (Human), UniProt P10415). Put plainly: Inhibition of Bcl-2 by the fluorescence polarisation technique. The format is binding. The note with it: fluorescence polarisation test; concentration that inhibits fluorescence polarisation by 50%; read-out: IC50 (nM) Bcl-2 FP. The protocol:
The fluorescence polarisation tests were carried out on microplates (384 wells). […] After incubation for 2 hours, the fluorescence polarisation is measured.
(Fluorescence polarisation rises when a labelled molecule tumbles more slowly, as on binding a larger partner.)

Experiment [1] relates to RS4;11 leukaemia tumour line. The experiment can be described thus: In vitro cytotoxicity (Microculture Tetrazolium Assay, 48 hours). The format is cell-based. The note with it: Homo sapiens, RS4;11 cells, 48 hours exposure, MTT, concentration that inhibits cell viability by 50%, read-out: IC50 (nM) MTT RS4. The procedure:
The cytotoxicity studies were carried out on the RS4;11 leukaemia tumour line.
The cells are distributed onto microplates and exposed to the test compounds for 48 hours.

Molecules are shown by their SMILES. Counter-ions that a name gives are not always drawn.

Bcl-2 protein, sequence (P10415 whole entry): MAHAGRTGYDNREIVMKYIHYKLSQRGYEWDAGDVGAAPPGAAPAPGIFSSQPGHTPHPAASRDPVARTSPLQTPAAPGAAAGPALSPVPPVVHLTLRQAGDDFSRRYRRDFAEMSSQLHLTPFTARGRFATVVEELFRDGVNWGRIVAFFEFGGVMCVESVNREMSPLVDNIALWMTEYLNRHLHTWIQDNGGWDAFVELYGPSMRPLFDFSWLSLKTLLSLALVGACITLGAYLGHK

One may read the IC50 as the point on the concentration scale where inhibition reaches its midpoint. On to `Cn1ncc2cc(N(C(=O)c3cc(-c4cc5c(cc4C(=O)N4Cc6ccccc6C[C@H]4CN4CCOCC4)OCO5)n4c3CCCC4)c3ccc(O)cc3)ccc21` [Example 94, N-(4-Hydroxyphenyl)-N-(1-methyl-1H-indazol-5-yl)-3-(6-{[(3S)-3-(morpholin-4-ylmethyl)-3,4-dihydroisoquinolin-2(1H)-yl]carbonyl}-1,3-benzodioxol-5-yl)-5,6,7,8-tetrahydroindolizine-1-carboxamide hydrochloride], for which the values for the IC50 (at Bcl-2 protein; in experiment [1]) were 3 nM and 8.16 nM, respectively.
On to `CSc1ccc(N(C(=O)c2cc(-c3cc(Cl)ccc3C(=O)N3Cc4ccccc4C[C@H]3CN3CCOCC3)n3c2CCCC3)c2ccc(O)cc2)cc1C(F)(F)F` [Example 54, 3-{5-Chloro-2-[((3S)-3-(4-morpholinylmethyl)-3,4-dihydro-2(1H)-isoquinolinyl)carbonyl]phenyl}-N-(4-hydroxyphenyl)-N-[4-(methylsulphanyl)-3-(trifluoromethyl)phenyl]-5,6,7,8-tetrahydro-1-indolizine carboxamide hydrochloride], for which the results for the half-inhibitory concentration (IC50) (on Bcl-2 protein; in experiment [1]) were 180 nM and 106 nM, respectively.
In the same order, the values of `Cn1ccc2cc(N(C(=O)c3cc(-c4cc(F)ccc4C(=O)N4Cc5ccccc5C[C@H]4CN4CCOCC4)n4c3CCCC4)c3ccc(O)cc3)ccc21` [Example 24, 3-{5-Fluoro-2-[((3S)-3-(4-morpholinylmethyl)-3,4-dihydro-2(1H)-isoquinolinyl)carbonyl]phenyl}-N-(4-hydroxyphenyl)-N-(1-methyl-1H-indol-5-yl)-5,6,7,8-tetrahydro-1-indolizine carboxamide hydrochloride] are 17 nM and 29.8 nM.
As for `Cn1ncc2cc(N(C(=O)c3cc(-c4cc(F)ccc4C(=O)N4Cc5ccccc5C[C@H]4CN4CCOCC4)n4c3CCCC4)c3ccc(O)cc3)ccc21` [Example 44, 3-{5-Fluoro-2-[((3S)-3-(4-morpholinylmethyl)-3,4-dihydro-2(1H)-isoquinolinyl)carbonyl]phenyl}-N-(4-hydroxyphenyl)-N-(1-methyl-1H-indazol-5-yl)-5,6,7,8-tetrahydro-1-indolizine carboxamide hydrochloride], the 50% inhibitory concentration (IC50) at Bcl-2 protein came to 14 nM; in experiment [1] it was 45 nM.
In the same order, the values of `CCN(CC)c1ccc(N(C(=O)c2cc(-c3cc(Cl)ccc3C(=O)N3Cc4ccccc4C[C@H]3CN3CCOCC3)n3c2CCCC3)c2ccc(O)cc2)cc1` [Example 28, 3-{5-Chloro-2-[((3S)-3-(4-morpholinylmethyl)-3,4-dihydro-2(1H)-isoquinolinyl)carbonyl]phenyl}-N-[4-(diethylamino)phenyl]-N-(4-hydroxyphenyl)-5,6,7,8-tetrahydro-1-indolizine carboxamide hydrochloride] are 25 nM and 76.1 nM.
In the same order, the values of `Cc1ccc(N(C(=O)c2cc(-c3cc(Cl)ccc3C(=O)N3Cc4ccccc4C[C@H]3CN3CCOCC3)n3c2COCC3)c2ccc(O)cc2)cc1F` [Example 82, 6-{5-Chloro-2-[((3S)-3-(4-morpholinylmethyl)-3,4-dihydro-2(1H)-isoquinolinyl)carbonyl]phenyl}-N-(3-fluoro-4-methylphenyl)-N-(4-hydroxyphenyl)-3,4-dihydro-1H-pyrrolo[2,1-c][1,4]oxazine-8-carboxamide hydrochloride] are 33 nM and 21.9 nM.
`O=C(c1cc(-c2cc(F)ccc2C(=O)N2Cc3ccccc3C[C@H]2CN2CCOCC2)n2c1CCCC2)N(c1ccccc1)c1ccc(O)cc1` [Example 25, 3-{5-Fluoro-2-[((3S)-3-(4-morpholinylmethyl)-3,4-dihydro-2(1H)-isoquinolinyl)carbonyl]phenyl}-N-(4-hydroxyphenyl)-N-phenyl-5,6,7,8-tetrahydro-1-indolizine carboxamide hydrochloride]: the IC50 at Bcl-2 protein amounted to 29 nM; in experiment [1] it was 143 nM.
In the same order, the values of `CCN(CCOC)C[C@@H]1Cc2ccccc2CN1C(=O)c1ccc(Cl)cc1-c1cc(C(=O)N(c2ccc(O)cc2)c2ccc3c(ccn3C)c2)c2n1CCCC2` [Example 110, 3-(5-Chloro-2-{[(3S)-3-{[ethyl(2-methoxyethyl)amino]methyl}-3,4-dihydroisoquinolin-2(1H)-yl]carbonyl}phenyl)-N-(4-hydroxyphenyl)-N-(1-methyl-1H-indol-5-yl)-5,6,7,8-tetrahydroindolizine-1-carboxamide hydrochloride] are 29 nM and 129 nM.
Turning to `COc1ccc(C(=O)N2Cc3ccccc3C[C@H]2CN2CCOCC2)c(-c2cc(C(=O)N(c3ccc(O)cc3)c3ccc4c(ccn4C)c3)c3ccccn23)c1` [Example 71, N-(4-Hydroxyphenyl)-3-{5-methoxy-2-[((3S)-3-(4-morpholinylmethyl)-3,4-dihydro-2(1H)-isoquinolinyl)carbonyl]phenyl}-N-(1-methyl-1H-indol-5-yl)-1-indolizine carboxamide hydrochloride], the results for the IC50 (at Bcl-2 protein; in experiment [1]) were 21 nM and 24.4 nM, respectively.
For `O=C(c1cc(-c2cc(F)ccc2C(=O)N2Cc3ccccc3C[C@H]2CN2CCOCC2)n2c1CC(O)CC2)N(c1ccccc1)c1ccc(O)cc1` (stereo partly drawn) [Example 100, 3-(5-Fluoro-2-{[(3S)-3-(morpholin-4-ylmethyl)-3,4-dihydroisoquinolin-2(1H)-yl]carbonyl}phenyl)-7-hydroxy-N-(4-hydroxyphenyl)-N-phenyl-5,6,7,8-tetrahydroindolizine-1-carboxamide hydrochloride], the IC50 was determined as 22 nM at Bcl-2 protein and 856 nM in experiment [1].
Take `O=C(c1cc(-c2cc(Cl)ccc2C(=O)N2Cc3ccccc3C[C@H]2CN2CCOCC2)n2c1CCCC2)N(c1ccc(O)cc1)c1ccc(F)c(F)c1` [Example 118, 3-(5-Chloro-2-{[(3S)-3-(morpholin-4-ylmethyl)-3,4-dihydroisoquinolin-2(1H)-yl]carbonyl}phenyl)-N-(3,4-difluorophenyl)-N-(4-hydroxyphenyl)-5,6,7,8-tetrahydroindolizine-1-carboxamide hydrochloride]: the IC50 is 15 nM on Bcl-2 protein and 71 nM in experiment [1].
In the same order, the values of `Cn1ccc2cc(N(C(=O)c3cc(-c4cc5c(cc4C(=O)N4Cc6ccccc6C[C@H]4CN4CCOCC4)OCO5)n4c3COCC4)c3ccc(O)cc3)ccc21` [Example 80, N-(4-Hydroxyphenyl)-N-(1-methyl-1H-indol-5-yl)-6-{6-[((3S)-3-(4-morpholinylmethyl)-3,4-dihydro-2(1H)-isoquinolinyl)carbonyl]-1,3-benzodioxol-5-yl}-3,4-dihydro-1H-pyrrolo[2,1-c][1,4]oxazine-8-carboxamide] are 18 nM and 18.8 nM.
In the case of `N#Cc1ccc(N(C(=O)c2cc(-c3cc(Cl)ccc3C(=O)N3Cc4ccccc4C[C@H]3CN3CCOCC3)n3c2CCCC3)c2ccc(O)cc2)cc1` [Example 129, 3-(5-Chloro-2-{[(3S)-3-(morpholin-4-ylmethyl)-3,4-dihydroisoquinolin-2(1H)-yl]carbonyl}phenyl)-N-(4-cyanophenyl)-N-(4-hydroxyphenyl)-5,6,7,8-tetrahydroindolizine-1-carboxamide hydrochloride], the IC50 on Bcl-2 protein is 9 nM; in experiment [1], 46.7 nM.
As for `CCN1CCc2cc(N(C(=O)c3cc(-c4cc5c(cc4C(=O)N4Cc6ccccc6C[C@H]4CN4CCOCC4)OCO5)n4ccccc34)c3ccc(O)cc3)ccc21` [Example 63, N-(1-Ethyl-2,3-dihydro-1H-indol-5-yl)-N-(4-hydroxyphenyl)-3-{6-[((3S)-3-(4-morpholinylmethyl)-3,4-dihydro-2(1H)-isoquinolinyl)carbonyl]-1,3-benzodioxol-5-yl}-1-indolizine carboxamide hydrochloride], the IC50 turned out to be 21 nM on Bcl-2 protein and 18.8 nM in experiment [1].
In the same order, the values of `Cn1ccc2cc(N(C(=O)c3cc(-c4cc(Cl)ccc4C(=O)N4Cc5ccccc5C[C@H]4CN4CCOCC4)n4c3CCCC4)c3ccc(O)cc3)cnc21` [Example 103, 3-(5-Chloro-2-{[(3S)-3-(morpholin-4-ylmethyl)-3,4-dihydroisoquinolin-2(1H)-yl]carbonyl}phenyl)-N-(4-hydroxyphenyl)-N-(1-methyl-1H-pyrrolo[2,3-b]-pyridin-5-yl)-5,6,7,8-tetrahydroindolizine-1-carboxamide] are 6 nM and 16.8 nM.
`CN1CCN(C[C@@H]2Cc3ccccc3CN2C(=O)c2cc3c(cc2-c2cc(C(=O)N(c4ccc(O)cc4)c4ccc5c(ccn5C)c4)c4ccccn24)OCO3)CC1` [Example 57, N-(4-Hydroxyphenyl)-N-(1-methyl-1H-indol-5-yl)-3-{6-[((3S)-3-[(4-methyl-1-piperazinyl)methyl]-3,4-dihydro-2(1H)-isoquinolinyl)carbonyl]-1,3-benzodioxol-5-yl}-1-indolizine carboxamide bis(hydrochloride)]: the IC50 was 12 nM on Bcl-2 protein and 8.62 nM in experiment [1].
In the same order, the values of `CN(C)C[C@@H]1Cc2ccccc2CN1C(=O)c1ccc(Cl)cc1-c1cc(C(=O)N(c2ccc(O)cc2)c2ccc3c(ccn3C)c2)c2n1CCCC2` [Example 52, 3-{5-Chloro-2-[((3S)-3-[(dimethylamino)methyl]-3,4-dihydro-2(1H)-isoquinolinyl)carbonyl]phenyl}-N-(4-hydroxyphenyl)-N-(1-methyl-1H-indol-5-yl)-5,6,7,8-tetrahydro-1-indolizine carboxamide hydrochloride] are 16 nM and 19.8 nM.
In the same order, the values of `O=C(c1cc(-c2cc(Cl)ccc2C(=O)N2Cc3ccccc3C[C@H]2CN2CCOCC2)n2c1CCCC2)N(c1ccc(O)cc1)c1ccc(F)cc1` [Example 111, 3-(5-Chloro-2-{[(3S)-3-(morpholin-4-ylmethyl)-3,4-dihydroisoquinolin-2(1H)-yl]carbonyl}phenyl)-N-(4-fluorophenyl)-N-(4-hydroxyphenyl)-5,6,7,8-tetrahydroindolizine-1-carboxamide hydrochloride] are 15 nM and 81.5 nM.
